What all share (format): cell-based
One experiment deals with T1, NLRP3 (Homo sapiens, UniProt Q96P20).
T1 construct: host or cells: THP-1 cells, PMA-differentiated
In words: Measurement of IL-1β production in PMA-differentiated THP-1 cells (NLRP3 hIL1B). Particulars: one or more of the described procedures. The procedure: Measurement of IL-1β Production in PMA-Differentiated THP-1 Cells
THP-1 cells were purchased from the American Type Culture Collection and sub-cultured according to instructions from the supplier. Prior to experiments, cells were cultured in RPMI 1640 containing 10% heat inactivated FBS, penicillin (100 units/ml) and streptomycin (100 μg/ml), and maintained in log phase prior to experimental setup. Prior to the experiment THP-1 were treated with PMA (Phorbol 12-myristate 13-acetate) (10 μg/ml) for 24 hours. The day of the experiment the media was removed and attaching cells were treated with trypsin for 2 minutes, cells were then collected, washed with PBS (phosphate buffer saline), spin down, resuspended in 2% heat inactivated FBS with RPMI at a concentration of 1×10^6 cells/ml, and 100 μl was plated in a 96 well plate. Compounds were dissolved in dimethyl sulfoxide (DMSO) and added to the culture medium to achieve desired concentration (e.g. 100, 30, 10, 3, 1, 0.3 or 0.1 μM). Cells were incubated with compounds for 4 hours. Cell free supernatant was collected and the production of IL-1β was evaluated by ELISA. A vehicle only control was run concurrently with each experiment. Final DMSO concentration was 1%.
Measurement of IL-1β Production in PMA-Differentiated THP-1 Cells (Alternative Procedure)
THP-1 cells were purchased from the American Type Culture Collection and sub-cultured according to instructions from the supplier. Prior to experiments, cells were cultured in RPMI 1640 containing 10% heat inactivated FBS, penicillin (100 units/ml), streptomycin (100 μg/ml), HEPES (10 mM) and sodium pyruvate (1 mM) and maintained in log phase prior to experimental setup. Prior to the experiment, THP-1 cells were treated with PMA (Phorbol 12-myristate 13-acetate) (20 μg/ml) overnight. The day of the experiment, the media was removed and attached cells were treated with trypsin for 2 minutes, cells were then collected, washed with PBS (phosphate buffer saline), pelleted by centrifugation and resuspended in 2% heat inactivated FBS with RPMI at a concentration of 50,000 cells/well in a 384 well plate. Cell free supernatant was collected and the production of IL-1β was evaluated by ELISA. Compounds were dissolved in dimethyl sulfoxide (DMSO) and added to the culture medium to achieve desired concentration (e.g. 100, 30, 10, 3, 1, 0.3 or 0.1 μM). Cells were incubated with compounds for 2 hours. A vehicle only control was run concurrently with each experiment. Final DMSO concentration was 1%.
Measurement of IL-1β Production—hTRF Protocol (Second Alternative Procedure)
Serial dilutions of compounds in DMSO were added to low volume 384 well plates at 100 nl/well using an ECHO 550 acoustic dispenser (Labcyte) to achieve final starting concentration of 10 μM in assay.
THP-1 cells in RPMI (Gibco, 11875) media with 10% FBS at a density of 1×10^6 cell/ml in a T175 flask were treated with a final concentration of phorbol 12-myristate 13-acetate (PMA) (Sigma, PI585) of 50 ng/ml overnight at 37° C. at 5% CO2 for differentiation. Cells were harvested the next day after rinsing well wth dPBS using 0.5% trypsin. A cell solution was prepared of 1×10^6 cells/ml for 50,000 cells in 50 μl/well in RPMI media with 2% FBS. Cells were plated using a multichannel pipette onto the compound dilutions in Greiner, 384 well, black clear bottom tissue culture treated plates (781090). The plates were incubated in 37° C. incubator at 5% CO2 for 2 hours.
After the 2 hour incubation, the cell plates were spun in the centrifuge for 5 minutes at 1200 rpm. Using the Felix (CyBio), 8 μl of the supernatant was transferred to 384 well, low volume, white proxy plates. (Perkin Elmer, 6008230). A human ILlbeta hTRF kit was used to analyze the supernatant (CISBIO, 62HIL1BPEG). The kit instructions were followed for preparing the IL1Beta standard curve and then the antibodies from the kit were diluted 1:40 rather than 1:20 as kit instructed. […]

Another experiment addresses T2, human TLR8 (Homo sapiens, UniProt Q9NR97).
T2 construct: host or cells: human HEK-Blue cells
T2 sequence (Q9NR97 27-1041): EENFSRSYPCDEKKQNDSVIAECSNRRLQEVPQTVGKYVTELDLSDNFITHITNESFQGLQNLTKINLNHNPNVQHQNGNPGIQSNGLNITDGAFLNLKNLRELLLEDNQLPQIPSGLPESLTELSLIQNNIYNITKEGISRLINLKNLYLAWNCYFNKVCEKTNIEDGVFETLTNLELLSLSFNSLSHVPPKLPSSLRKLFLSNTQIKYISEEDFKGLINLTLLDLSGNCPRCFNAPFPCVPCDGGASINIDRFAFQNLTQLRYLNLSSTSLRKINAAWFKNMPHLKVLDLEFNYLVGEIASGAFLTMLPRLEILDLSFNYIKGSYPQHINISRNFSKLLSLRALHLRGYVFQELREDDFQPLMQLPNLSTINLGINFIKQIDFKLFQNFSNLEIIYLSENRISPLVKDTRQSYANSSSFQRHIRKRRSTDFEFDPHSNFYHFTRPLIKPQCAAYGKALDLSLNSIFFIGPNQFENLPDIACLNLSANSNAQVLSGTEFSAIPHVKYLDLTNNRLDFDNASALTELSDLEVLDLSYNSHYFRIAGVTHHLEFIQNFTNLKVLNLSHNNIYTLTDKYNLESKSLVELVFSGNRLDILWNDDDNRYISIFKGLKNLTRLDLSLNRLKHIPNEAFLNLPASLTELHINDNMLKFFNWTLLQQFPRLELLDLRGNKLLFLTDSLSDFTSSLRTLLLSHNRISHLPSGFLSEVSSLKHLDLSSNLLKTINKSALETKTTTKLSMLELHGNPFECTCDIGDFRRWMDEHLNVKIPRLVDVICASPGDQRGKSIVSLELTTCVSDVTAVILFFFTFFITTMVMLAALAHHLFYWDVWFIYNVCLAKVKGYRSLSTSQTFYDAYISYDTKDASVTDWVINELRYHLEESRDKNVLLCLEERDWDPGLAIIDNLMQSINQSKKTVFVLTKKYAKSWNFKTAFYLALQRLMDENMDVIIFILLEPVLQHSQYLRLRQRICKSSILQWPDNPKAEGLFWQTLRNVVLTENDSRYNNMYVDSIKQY
Nature of the experiment: In vitro human TLR8 reporter assay (HEK-Blue, NF-kB/AP1-inducible SEAP). To be noted: HEK-Blue cells co-expressing TLR8 and SEAP reporter, 18 h; read-out: TLR8 agonist EC50. On the procedure: (§1) In Vitro Human TLR7 and TLR8 Binding Reporter Assays
(§2) Logarithmically-growing human HEK-Blue cells co-expressing a TLR7 or TLR8 gene and a NF-kB/AP1-inducible SEAP (secreted embryonic alkaline phosphatase; Invivogen, San Diego, CA) reporter gene are added to individual wells of a 384-well plate (15,000 cells per 20 μL per well) and maintained for 24 h at 37° C. 5% CO2. Test compounds or DMSO are distributed to separate wells the next day using acoustic liquid handling technology (100 nL per well) and cells are subsequently incubated for 18 h at 37° C. 5% CO2. Cellular SEAP production is measured using an Envision plate reader instrument thirty minutes after adding freshly-made Quanti-Blue reagent (prepared by following manufacturer instructions; Invivogen, San Diego, CA) to the HEK-Blue TLR Nf-kB-SEAP cell reactions. All EC50 values (half-maximal effective concentration) are determined using proprietary data analysis software. Normalized EC50 value=absolute value determined by setting 100% Ymax using a reference standard RLU (relative light unit) values from cells treated with 50 μM of the reference standard.
Background: In a reporter assay the amount or activity of a reporter protein is the signal.

Another experiment addresses T3, human TLR7 (Homo sapiens, UniProt Q9NYK1).
T3 construct: host or cells: human HEK-Blue cells
T3 sequence (Q9NYK1 27-1049): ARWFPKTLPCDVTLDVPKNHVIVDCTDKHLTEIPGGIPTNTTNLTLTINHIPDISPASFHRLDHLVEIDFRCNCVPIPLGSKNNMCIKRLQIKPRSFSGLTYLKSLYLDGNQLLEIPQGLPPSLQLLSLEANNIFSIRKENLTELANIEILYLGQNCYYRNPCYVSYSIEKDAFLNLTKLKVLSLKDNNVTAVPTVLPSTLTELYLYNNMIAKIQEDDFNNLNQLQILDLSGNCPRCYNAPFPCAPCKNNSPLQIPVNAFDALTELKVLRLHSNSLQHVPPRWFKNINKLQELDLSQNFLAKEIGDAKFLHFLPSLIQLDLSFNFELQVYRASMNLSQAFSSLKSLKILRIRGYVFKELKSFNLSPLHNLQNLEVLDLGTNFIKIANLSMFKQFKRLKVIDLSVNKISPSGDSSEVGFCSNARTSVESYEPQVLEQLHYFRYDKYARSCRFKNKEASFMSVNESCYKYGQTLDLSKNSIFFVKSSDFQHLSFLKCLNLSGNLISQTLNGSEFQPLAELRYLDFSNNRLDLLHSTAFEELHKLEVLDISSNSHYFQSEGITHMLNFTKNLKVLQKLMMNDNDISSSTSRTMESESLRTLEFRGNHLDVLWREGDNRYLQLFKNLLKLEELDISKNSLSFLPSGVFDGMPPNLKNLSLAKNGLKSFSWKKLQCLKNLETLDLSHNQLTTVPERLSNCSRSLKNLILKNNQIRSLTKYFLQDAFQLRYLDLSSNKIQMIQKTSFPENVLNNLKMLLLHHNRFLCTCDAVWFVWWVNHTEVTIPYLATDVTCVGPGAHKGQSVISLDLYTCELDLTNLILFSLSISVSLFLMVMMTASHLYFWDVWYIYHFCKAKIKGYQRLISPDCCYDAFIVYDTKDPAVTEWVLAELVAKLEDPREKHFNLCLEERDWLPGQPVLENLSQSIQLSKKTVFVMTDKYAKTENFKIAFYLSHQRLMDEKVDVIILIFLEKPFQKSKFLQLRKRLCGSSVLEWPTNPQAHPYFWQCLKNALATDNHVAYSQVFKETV
Nature of the experiment: In vitro human TLR7 reporter assay (HEK-Blue, NF-kB/AP1-inducible SEAP). Particulars: HEK-Blue cells co-expressing TLR7 and SEAP reporter, 18 h; read-out: TLR7 agonist EC50. On the procedure: as §1, §2

Among the data in patent US12024513B2, “NLRP3 modulators” (INNATE TUMOR IMMUNITY, INC., priority 2018, dated 2024) are IC50 and EC50 values, retold here.

T1 sequence (Q96P20 whole entry): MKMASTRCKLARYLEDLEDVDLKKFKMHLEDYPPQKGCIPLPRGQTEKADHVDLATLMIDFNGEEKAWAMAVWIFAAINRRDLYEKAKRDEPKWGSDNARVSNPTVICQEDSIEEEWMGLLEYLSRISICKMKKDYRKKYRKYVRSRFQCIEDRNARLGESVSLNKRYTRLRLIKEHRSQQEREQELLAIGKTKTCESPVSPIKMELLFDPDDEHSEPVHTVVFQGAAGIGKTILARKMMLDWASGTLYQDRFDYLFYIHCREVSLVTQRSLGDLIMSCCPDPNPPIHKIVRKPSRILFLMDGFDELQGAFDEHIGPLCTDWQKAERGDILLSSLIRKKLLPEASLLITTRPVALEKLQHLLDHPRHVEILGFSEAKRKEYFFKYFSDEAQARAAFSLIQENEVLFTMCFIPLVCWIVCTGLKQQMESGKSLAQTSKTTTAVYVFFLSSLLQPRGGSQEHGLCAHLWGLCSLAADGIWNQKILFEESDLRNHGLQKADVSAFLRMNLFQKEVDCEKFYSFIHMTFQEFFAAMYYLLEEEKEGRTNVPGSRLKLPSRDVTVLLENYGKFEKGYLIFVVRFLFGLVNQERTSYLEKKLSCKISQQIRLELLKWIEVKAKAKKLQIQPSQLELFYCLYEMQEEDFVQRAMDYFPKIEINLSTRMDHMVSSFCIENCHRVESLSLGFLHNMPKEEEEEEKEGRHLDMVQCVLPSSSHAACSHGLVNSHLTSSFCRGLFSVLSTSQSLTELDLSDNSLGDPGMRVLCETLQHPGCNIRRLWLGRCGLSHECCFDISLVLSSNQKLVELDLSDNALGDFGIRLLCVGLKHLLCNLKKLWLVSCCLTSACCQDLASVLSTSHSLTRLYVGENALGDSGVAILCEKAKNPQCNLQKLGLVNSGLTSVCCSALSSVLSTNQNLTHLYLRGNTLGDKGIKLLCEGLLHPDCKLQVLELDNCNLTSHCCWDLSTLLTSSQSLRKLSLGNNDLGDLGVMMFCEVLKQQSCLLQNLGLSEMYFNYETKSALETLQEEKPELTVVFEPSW

At NLRP3, `Nc1nc2cc(-c3cc[nH]n3)ccc2c2c1nc(CCNC(=O)c1ccc(F)cn1)n2C1CCC1` [Example 1, N-{2-[4-amino-1-cyclobutyl-7-(1H-pyrazol-5-yl)-1H-imidazo[4,5-c]quinolin-2-yl]ethyl}-5-fluoropyridine-2-carboxamide] had an IC50 of 120 nM.

On NLRP3, `CC(C)n1c(CCNC(=O)c2ccccn2)nc2c(N)nc3cc(-c4cc[nH]n4)ccc3c21` [Example 2] had an IC50 of 70 nM.

On NLRP3, `Nc1nc2cc(-c3cc[nH]n3)ccc2c2c1nc(CCNC(=O)c1ccccn1)n2CC(F)F` [Example 3] had an IC50 of 220 nM.

Molecule `Nc1nc2cc(-c3cc[nH]n3)ccc2c2c1nc(CCNC(=O)c1ccc(F)cn1)n2CC(F)F` [Example 4] displayed an IC50 on NLRP3 of 340 nM.

Consider `Nc1nc2cc(-c3cc[nH]n3)ccc2c2c1nc(CCNC(=O)c1ccccn1)n2C1CC1` [Example 5], for which, on NLRP3, the IC50 was 440 nM.

Molecule `Nc1nc2cc(-c3cc[nH]n3)ccc2c2c1nc(CCNC(=O)c1ccccn1)n2C1CCC1` [Example 6] displayed an IC50 against NLRP3 of 410 nM.

On NLRP3, `COc1ccc(C(=O)NCCc2nc3c(N)nc4cc(-c5cc[nH]n5)ccc4c3n2C2CCC2)nc1` [Example 7] returned an IC50 of 180 nM.

Consider `Nc1nc2cc(-c3cc[nH]n3)ccc2c2c1nc(CCNC(=O)c1ccc(F)cn1)n2C1CC1` [Example 8], for which the IC50 against NLRP3 worked out at 270 nM.

`CC(C)n1c(CCNC(=O)c2ccc(F)cn2)nc2c(N)nc3cc(-c4cc[nH]n4)ccc3c21` [Example 9] showed an IC50 at NLRP3 of 120 nM.

Molecule `CC(C)n1c(CCNC(=O)c2csc(Cl)n2)nc2c(N)nc3cc(-c4cc[nH]n4)ccc3c21` [Example 10] had an IC50 against NLRP3 of 160 nM.

On to `Nc1nc2cc(-c3cc[nH]n3)ccc2c2c1nc(CCNC(=O)c1csc(Cl)n1)n2CC(F)F` [Example 11], for which, on NLRP3, it took 590 nM to reach half-maximal inhibition (IC50).

Regarding `COc1ccc(C(=O)NCCc2nc3c(N)nc4cc(-c5cc[nH]n5)ccc4c3n2C(C)C)nc1` [Example 12], on NLRP3, the IC50 stood at 270 nM.

In turn, `COc1ccc(C(=O)NCCc2nc3c(N)nc4cc(-c5cc[nH]n5)ccc4c3n2C2CC2)nc1` [Example 13] returned an IC50 against NLRP3 of 1240 nM.

On to `CC(C)n1c(CNC(=O)c2ccccn2)nc2c(N)nc3cc(-c4cc[nH]n4)ccc3c21` [Example 14], for which the IC50 against NLRP3 turned out to be 240 nM. Further, the EC50 at human TLR8 lay within 20000 to 100000 nM.

In the case of `CC(C)n1c(CNC(=O)C2CCCCO2)nc2c(N)nc3cc(-c4cc[nH]n4)ccc3c21` (centres unmarked) [Example 15], the IC50 on NLRP3 amounted to 270 nM.

Consider `CC(C)n1c(CNC(=O)C2CCCO2)nc2c(N)nc3cc(-c4cc[nH]n4)ccc3c21` (centres unmarked) [Example 16], for which, at NLRP3, the half-inhibitory concentration (IC50) is 220 nM.

As for `Nc1nc2cc(-c3cc[nH]n3)ccc2c2c1nc(CCNC(=O)C1CCCCO1)n2CC(F)F` (centres unmarked) [Example 17], the IC50 on NLRP3 was 1320 nM.

On to `CC(C)n1c(CCNC(=O)C2CCCO2)nc2c(N)nc3cc(-c4cc[nH]n4)ccc3c21` (centres unmarked) [Example 18], for which the midpoint of inhibition against NLRP3, the IC50, lay at 1940 nM.

At NLRP3, `Nc1nc2cc(-c3cc[nH]n3)ccc2c2c1nc(CNC(=O)C1CCCCO1)n2CC(F)F` (centres unmarked) [Example 19] had an IC50 of 790 nM. Besides, the EC50 on human TLR7 and on human TLR8 was 20000 to 100000 nM each time.

Consider `Nc1nc2cc(-c3cc[nH]n3)ccc2c2c1nc(CNC(=O)C1CCCO1)n2CC(F)F` (centres unmarked) [Example 20], for which the IC50 against NLRP3 came out at 1880 nM.

For orientation: IC50 means the concentration that inhibits the measured activity by half. High values mean a need for much substance, low ones inhibition by little substance. The EC50 is the concentration at which the effect is half-maximal.
